Here are results for 43 compounds from patent US10533006B2, “Nitrogen-containing heterocycle and carbocycle derivatives having TrkA inhibitory activity” (Shionogi & Co., Ltd., priority 2016, dated 2020).

This assay deals with T1, human TrkA (Homo sapiens, UniProt P04629).
T1 construct: purchased Lifetechnologies PV3144
Briefly: Human TrkA inhibition assay. The assay is classed as biochemical. The note with it: human TrkA phosphorylation inhibition, ATP 500 μmol/L. As to the method:
Seven point five L per well of human TrkA (PV3144, Lifetechnologies, final concentration: 1 nmol/L) suspended in the assay buffer (100 mmol/L 4-(2-hydroxyethyl)-1-piperazineethanesulfonic acid (HEPES), 10 mmol/L magnesium chloride, 0.003 vol % Brij-35, 0.004 vol % Tween20 and 1 mmol/L dithiothreitol (DTT)) was applied in a 384 well plate and the plate was pre-incubated for 15 min at room temperature with 0.4 μL of each compound (final concentration: 200 μmol/L-0.1 nM) dissolved in DMSO. Then, fluorescent substrate (FL-peptide 27, 760424, PerkinElmer, final concentration: 1.5 μmol/L) and ATP (final concentration 500 μmol/L) dissolved in the assay buffer was added in each well. After the incubation of 120 min at 37° C., fifteen μL of termination buffer (100 mmol/L HEPES, 40 mmol/L ethylenediaminetetraacetic acid (EDTA), 10 mmol/L magnesium chloride, 0.003 vol % Brij-35, 0.004 vol % Tween20, 1 mmol/L DTT and 0.16 vol % Coating Reagent 3) was added in each well to stop the enzyme reaction. Fluorescent intensities (FI) of phosphorylated and non-phosphorylated fluorescent substrates were measured by LabChip EZReader II (Caliper LifeSciences, Inc.), and conversion ratio (CR) was calculated by the following formula-1. The CR in the well applied with DMSO alone was used as a negative control and the CR in the well without applying TrkA was used as a positive control. The inhibitory effect of each compound on TrkA phosphorylation was calculated by the following formula-2. CR (%)=(FI of phosphorylated substrate/(FI of phosphorylated substrate+FI of non-phosphorylated substrate))×100 (Formula-1) Phosphorylation inhibition (%)=(1−(CR with compound treatment−CR of positive control)/(CR of negative control−CR of positive control))×100 (Formula-2)
IC50 values (nmol/L) were determined by the logistic regression using the inhibition data in 10 points of 3-fold dilution series at a compound concentration range of 2 μmol/L to 0.1 nmol/L, or 15 points of 3-fold dilution series at the range of 200 μmol/L to 0.04 nmol/L.

Each structure is given as a SMILES string. Like-named read-outs stand apart in the source and are kept apart here.

T1 sequence (P04629 33-796): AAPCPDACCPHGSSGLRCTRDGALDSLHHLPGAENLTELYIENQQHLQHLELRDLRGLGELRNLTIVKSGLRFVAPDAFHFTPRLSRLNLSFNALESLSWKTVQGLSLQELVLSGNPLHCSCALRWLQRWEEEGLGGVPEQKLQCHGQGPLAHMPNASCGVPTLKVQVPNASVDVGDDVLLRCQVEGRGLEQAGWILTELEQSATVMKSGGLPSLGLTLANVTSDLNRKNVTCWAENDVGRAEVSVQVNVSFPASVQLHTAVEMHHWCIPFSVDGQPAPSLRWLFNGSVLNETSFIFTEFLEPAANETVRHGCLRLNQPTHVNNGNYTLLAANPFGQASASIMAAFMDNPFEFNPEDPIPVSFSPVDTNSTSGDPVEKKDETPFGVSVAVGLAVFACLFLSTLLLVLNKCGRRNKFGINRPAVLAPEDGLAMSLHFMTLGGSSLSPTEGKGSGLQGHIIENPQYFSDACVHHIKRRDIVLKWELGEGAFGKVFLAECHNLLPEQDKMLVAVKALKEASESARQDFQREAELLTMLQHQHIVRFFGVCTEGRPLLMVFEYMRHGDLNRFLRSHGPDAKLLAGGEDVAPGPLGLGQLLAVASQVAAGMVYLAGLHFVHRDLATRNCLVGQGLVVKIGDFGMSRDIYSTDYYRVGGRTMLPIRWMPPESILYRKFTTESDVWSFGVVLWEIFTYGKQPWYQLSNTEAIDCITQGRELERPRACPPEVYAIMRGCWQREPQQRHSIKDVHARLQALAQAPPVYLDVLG

As for `COCCN1C[C@@H](NC(=O)Nc2c(C)c(-c3cc(C(=O)N[C@@H]4CCOC4)c(=O)n(C)c3)nn2-c2ccccc2)[C@H](c2ccccc2)C1` (racemic) [Compound I-112], the IC50 (read-out: IC50_nM) is under 100 nM.

Turning to `COCCN1C[C@@H](NC(=O)Nc2c(C)c(-c3ccnc(C(=O)N(C)C)c3)nn2-c2ccccc2)[C@H](c2ccccc2)C1` (racemic) [Compound I-47], the IC50 (read-out: IC50_nM) is under 100 nM.

With `COCCN1C[C@@H](NC(=O)Nc2c(C)c(-c3cnc4c(cnn4C)c3)nn2-c2ccccc2)[C@H](c2ccccc2)C1` (racemic) [Compound I-17], the IC50 (read-out: IC50_nM) is under 100 nM.

On to `COCC[C@@H]1C[C@@H](NC(=O)Nc2c(C)c(-c3ccc4c(cnn4C)c3)nn2-c2ccccc2)[C@H](c2ccc(F)c(F)c2)C1` [Compound I-13], for which the IC50 (read-out: IC50_nM) was under 100 nM.

As for `COCCN1C[C@@H](NC(=O)Nc2c(C)c(-c3cnc4c(c3)c(=O)n(C)n4C)nn2-c2ccccc2)[C@H](c2ccccc2)C1` (racemic) [Compound I-99], the IC50 (read-out: IC50_nM) was under 100 nM.

On to `COCC[C@@H]1C[C@@H](NC(=O)Nc2c(C)c(-c3cnc4c(cnn4C)c3)nn2-c2ccccc2)[C@H](c2ccccc2)C1` [Compound I-102], for which, for the setting “read-out: IC50 value”, the IC50 came out at 0.66 nM.

`CCOc1ncc(-c2nn(-c3ccccc3)c(NC(=O)N[C@@H]3CN(CCOC)C[C@H]3c3ccccc3)c2C)cc1C(=O)NC1CCOCC1` (racemic) [Compound I-140]: the IC50 (read-out: IC50_nM) is under 100 nM.

Turning to `COCCN1C[C@@H](NC(=O)Nc2c(C)c(-c3ccc(C(=O)NCc4ccccc4)nc3)nn2-c2ccccc2)[C@H](c2ccccc2)C1` (racemic) [Compound I-27], the IC50 (read-out: IC50_nM) is under 100 nM.

For `COCCN1C[C@@H](NC(=O)Nc2c(C)c(-c3ccnc(C(=O)NOC)c3)nn2-c2ccccc2)[C@H](c2ccccc2)C1` (racemic) [Compound I-100], where the note is “read-out: IC50 value”, the IC50 amounted to 6.8 nM.

Take `CNC(=O)c1cc(-c2nn(-c3ccccc3)c(NC(=O)N[C@@H]3C[C@@H](CCOC)C[C@H]3c3ccnc(F)c3)c2C)cnc1OC` [Compound I-145]: where the note is “read-out: IC50_nM”, the IC50 was under 100 nM.

On to `CNC(=O)c1cc(-c2nn(-c3ccccc3)c(NC(=O)N[C@@H]3CN(CCOC)C[C@H]3c3ccccc3)c2C)cn(C)c1=O` (racemic) [Compound I-52], for which the IC50 (read-out: IC50_nM) was under 100 nM.

Consider `CNS(=O)(=O)c1cc(-c2nn(-c3ccccc3)c(NC(=O)N[C@@H]3C[C@@H](CCOC)C[C@H]3c3ccccc3)c2C)cn(C)c1=O` [Compound I-148], for which, where the note is “read-out: IC50_nM”, the IC50 was under 100 nM.

As to `CCN1CCC(NC(=O)c2ccc(-c3nn(-c4ccccc4)c(NC(=O)N[C@@H]4C[C@@H](CCOC)N[C@H]4c4ccc(F)c(F)c4)c3C)cc2)CC1` [Compound I-15], the IC50 (read-out: IC50_nM) is under 100 nM.

In the case of `COCCN1C[C@@H](NC(=O)Nc2c(C)c(-c3cnc(OCF)c(C(=O)NC4CCOCC4)c3)nn2-c2ccccc2)[C@H](c2ccccc2)C1` (racemic) [Compound I-143], under “read-out: IC50_nM”, the IC50 was under 100 nM.

Turning to `COCCN1C[C@@H](NC(=O)Nc2c(C)c(-c3cnc4nc(C)nn4c3)nn2-c2ccccc2)[C@H](c2ccccc2)C1` (racemic) [Compound I-32], the IC50 (read-out: IC50_nM) was under 100 nM.

In the case of `CNC(=O)c1cc(-c2nn(-c3ccccc3)c(NC(=O)N[C@@H]3CN(CCOC)C[C@H]3c3ccccc3)c2C)cnc1OCCOC` (racemic) [Compound I-124], the IC50 (read-out: IC50_nM) was under 100 nM.

Consider `CNC(=O)c1cc(-c2nn(-c3ccccc3)c(NC(=O)N[C@@H]3CN(CCOC)C[C@H]3c3ccccc3)c2C)cnc1OCF` (racemic) [Compound I-126], for which the IC50 (read-out: IC50_nM) was under 100 nM.

`CCN1CCC(NC(=O)c2ccc(-c3nn(-c4ccccc4)c(NC(=O)N[C@@H]4CN(CCOC)C[C@H]4c4ccccc4)c3C)cn2)CC1` (racemic) [Compound I-50]: the IC50 (read-out: IC50_nM) is under 100 nM.

`COCCN1C[C@@H](NC(=O)Nc2c(C)c(-c3cnn(C)c3)nn2-c2ccccc2)[C@H](c2ccnc(F)c2F)C1` (racemic) [Compound I-162]: the IC50 (read-out: IC50_nM) is under 100 nM.

For `COCCN1C[C@@H](NC(=O)Nc2c(C)c(-c3cnc(OC)c(C(=O)NC4CC(F)(F)C4)c3)nn2-c2ccccc2)[C@H](c2ccccc2)C1` (racemic) [Compound I-81], the IC50 (read-out: IC50_nM) was under 100 nM.

Take `CCNC(=O)c1cc(-c2nn(-c3ccccc3)c(NC(=O)N[C@@H]3CN(CCOC)C[C@H]3c3ccccc3)c2C)cnc1OC` (racemic) [Compound I-55]: the IC50 (read-out: IC50_nM) is under 100 nM.

In the case of `COCCN1C[C@@H](NC(=O)Nc2c(C)c(-c3ccc(C(=O)N(C)C)nc3)nn2-c2ccccc2)[C@H](c2ccccc2)C1` (racemic) [Compound I-36], the IC50 (read-out: IC50_nM) is under 100 nM.

As for `COCCN1C[C@@H](NC(=O)Nc2c(C)c(-c3cnc4c(c3)nc(CO)n4C)nn2-c2ccccc2)[C@H](c2ccccc2)C1` (racemic) [Compound I-97], the IC50 (read-out: IC50_nM) was under 100 nM.

As for `COCCN1C[C@@H](NC(=O)Nc2c(C)c(-c3cnc(OC)c(C(=O)NC4CS(=O)(=O)C4)c3)nn2-c2ccccc2)[C@H](c2ccccc2)C1` (racemic) [Compound I-101], the IC50 (read-out: IC50_nM) is under 100 nM.

Turning to `COCCN1C[C@@H](NC(=O)Nc2c(C)c(-c3cnc4c(cnn4C)c3)nn2-c2ccccc2)[C@H](c2ccnc(F)c2)C1` [Compound I-159], the IC50 (read-out: IC50 value) was 1 nM.

For the compound `CCNC(=O)c1cc(-c2nn(-c3ccccc3)c(NC(=O)N[C@@H]3CN(CCOC)C[C@H]3c3ccccc3)c2C)cnc1OCC(F)F` (racemic) [Compound I-131], where the note is “read-out: IC50_nM”, the IC50 was under 100 nM.

Regarding `CCNC(=O)c1cc(-c2nn(-c3ccccc3)c(NC(=O)N[C@@H]3CN(CCOC)C[C@H]3c3ccccc3)c2C)cnc1OC(F)F` (racemic) [Compound I-134], the IC50 (read-out: IC50_nM) is under 100 nM.

Take `COCCN1C[C@@H](NC(=O)Nc2c(C)c(-c3cnn(C)c3)nn2-c2ccccc2)[C@H](c2cnc(F)c(Cl)c2)C1` (racemic) [Compound I-19]: the IC50 (read-out: IC50_nM) is under 100 nM.

In the case of `COCC[C@@H]1C[C@@H](NC(=O)Nc2c(C)c(-c3cnc4c(cnn4C)c3)nn2-c2ccccc2)[C@H](c2ccc(F)c(F)c2)N1C` [Compound I-172], the IC50 (read-out: IC50 value) came out at 0.94 nM.

For the compound `COCCN1C[C@@H](NC(=O)Nc2c(C)c(-c3ccnc(C(=O)NC[C@H](C)O)c3)nn2-c2ccccc2)[C@H](c2ccccc2)C1` [Compound I-88], the IC50 (read-out: IC50_nM) was under 100 nM.

With `COCCN1C[C@@H](NC(=O)Nc2c(C)c(-c3cc(C(=O)NC[C@@H](C)O)c(=O)n(C)c3)nn2-c2ccccc2)[C@H](c2ccccc2)C1` (racemic) [Compound I-114], the IC50 (read-out: IC50_nM) was under 100 nM.

Consider `COCCN1C[C@@H](NC(=O)Nc2c(C)c(-c3ccc4c(cnn4C)c3)nn2-c2ccccc2)[C@H](c2ccc(F)c(F)c2)C1` [Compound I-6], for which the IC50 (read-out: IC50_nM) was under 100 nM.

On to `COCC[C@@H]1C[C@@H](NC(=O)Nc2c(C)c(-c3ccc(O)nc3)nn2-c2ccccc2)[C@H](c2ccc(F)c(F)c2)N1C` [Compound I-14], for which, under “read-out: IC50_nM”, the IC50 was under 100 nM.

With `CNC(=O)c1cc(-c2nn(-c3ccccc3)c(NC(=O)N[C@@H]3C[C@@H](CCOC)N(C)[C@H]3c3ccnc(F)c3)c2C)cnc1OC` [Compound I-176], for the setting “read-out: IC50_nM”, the IC50 was under 100 nM.

As to `COCCN1C[C@@H](NC(=O)Nc2c(C)c(-c3cnc4ncnn4c3)nn2-c2ccccc2)[C@H](c2ccccc2)C1` (racemic) [Compound I-33], under “read-out: IC50_nM”, the IC50 is under 100 nM.

In the case of `COCCN1C[C@@H](NC(=O)Nc2c(C)c(-c3cnn(C)c3)nn2-c2ccccc2)[C@H](c2cc(F)nc(F)c2)C1` (racemic) [Compound I-7], the IC50 (read-out: IC50_nM) is under 100 nM.

Take `COCCN1C[C@@H](NC(=O)Nc2c(C)c(-c3cnc(OC)c(C(=O)NC[C@@H](C)O)c3)nn2-c2ccccc2)[C@H](c2ccccc2)C1` [Compound I-82]: for the setting “read-out: IC50_nM”, the IC50 is under 100 nM.

In the case of `COCC[C@@H]1C[C@@H](NC(=O)Nc2c(C)c(-c3cc(C(=O)NC4CCOCC4)c(=O)n(C)c3)nn2-c2ccccc2)[C@H](c2ccccc2)C1` [Compound I-118], the IC50 (read-out: IC50_nM) is under 100 nM.

For `COCCN1C[C@@H](NC(=O)Nc2c(C)c(-c3cnc(OC)c(C(=O)NC4CCC(F)(F)CC4)c3)nn2-c2ccccc2)[C@H](c2ccccc2)C1` (racemic) [Compound I-83], the IC50 (read-out: IC50_nM) was under 100 nM.

On to `COCCN1C[C@@H](NC(=O)Nc2c(C)c(-c3cnn(C)c3)nn2-c2ccccc2)[C@H](c2cc(F)ncc2F)C1` (racemic) [Compound I-98], for which the IC50 (read-out: IC50_nM) was under 100 nM.

Consider `COCCN1C[C@@H](NC(=O)Nc2c(C)c(-c3ccnc(C(=O)NO)c3)nn2-c2ccccc2)[C@H](c2ccccc2)C1` (racemic) [Compound I-63], for which the IC50 (read-out: IC50_nM) was under 100 nM.

Turning to `CNC(=O)c1cc(-c2nn(-c3ccccc3)c(NC(=O)N[C@@H]3C[C@@H](CCOC)C[C@H]3c3ccccc3)c2C)cn(C)c1=O` [Compound I-117], the IC50 (read-out: IC50_nM) was under 100 nM.

Turning to `COCCN1C[C@@H](NC(=O)Nc2c(C)c(-c3cnc(N=S(C)(C)=O)c(C)c3)nn2-c2ccccc2)[C@H](c2ccccc2)C1` (racemic) [Compound I-121], the IC50 (read-out: IC50_nM) was under 100 nM.
